Assay results published in ChEMBL document CHEMBL5032500, “Adenosine A2AR/A1R Antagonists Enabling Additional H3R Antagonism for the Treatment of Parkinson's Disease” (J Med Chem, 2021).
The source made the active and inactive calls. No cut-off for these calls is given here.

Assays:
[1] = test system: Rattus norvegicus; assay: Antiparkinson's activity in ip dosed L-DOPA induced dyskinesia Sprague-Dawley rat model assessed as reduction in dyskinesia by measuring abnormal involuntary movement upto 21 days; type: functional, organism-based; details: dose 0.1-1 mg/kg, time day <=21
[2] = Toxicity in C57BL/6 mouse assessed as effect on paradoxical sleep at 2 mg/kg, po by EEG analysis; type: organism-based; details: in vivo
[3] = test system: Mus musculus; assay: Induction of wakefulness in C57BL/6 mouse at 1 mg/kg, po by EEG analysis; type: functional, organism-based
[4] = biological target: T1, Adenosine receptor A2a (Homo sapiens, UniProt P29274); assay: […] activity at human recombinant adenosine A2A receptor expressed in CHO cells assessed as inhibition of NECA-induced cAMP accumulation incubated for 20 mins by radioligand competition binding assay; type: functional, cell-based
T1 sequence (P29274 whole entry): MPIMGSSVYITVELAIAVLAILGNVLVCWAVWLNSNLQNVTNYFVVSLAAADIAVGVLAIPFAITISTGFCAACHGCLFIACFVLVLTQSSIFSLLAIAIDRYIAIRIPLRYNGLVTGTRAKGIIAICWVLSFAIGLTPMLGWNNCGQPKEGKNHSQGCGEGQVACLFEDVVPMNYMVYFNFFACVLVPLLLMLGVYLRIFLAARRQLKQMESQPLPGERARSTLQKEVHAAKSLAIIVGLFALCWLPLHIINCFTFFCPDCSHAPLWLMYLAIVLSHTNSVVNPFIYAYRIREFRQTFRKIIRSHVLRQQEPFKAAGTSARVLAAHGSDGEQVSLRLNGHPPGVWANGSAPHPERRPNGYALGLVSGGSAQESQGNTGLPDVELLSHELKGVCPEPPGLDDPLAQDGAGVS

[5] = species on record: Homo sapiens; assay: Selectivity index, ratio of Ki for human recombinant dopamine D3 receptor to Ki for human recombinant adenosine A2A receptor
[6] = species on record: Homo sapiens; assay: Selectivity index, ratio of Ki for human recombinant adenosine A3 receptor to Ki for human recombinant adenosine A2B receptor
[7] = biological target: D(3) dopamine receptor (Homo sapiens, UniProt P35462); assay: Displacement of [3H]spiperone from human recombinant dopamine D3 receptor expressed in CHO cells by liquid scintillation counting analysis; type: cell-based
Sequence of D(3) dopamine receptor (P35462 whole entry): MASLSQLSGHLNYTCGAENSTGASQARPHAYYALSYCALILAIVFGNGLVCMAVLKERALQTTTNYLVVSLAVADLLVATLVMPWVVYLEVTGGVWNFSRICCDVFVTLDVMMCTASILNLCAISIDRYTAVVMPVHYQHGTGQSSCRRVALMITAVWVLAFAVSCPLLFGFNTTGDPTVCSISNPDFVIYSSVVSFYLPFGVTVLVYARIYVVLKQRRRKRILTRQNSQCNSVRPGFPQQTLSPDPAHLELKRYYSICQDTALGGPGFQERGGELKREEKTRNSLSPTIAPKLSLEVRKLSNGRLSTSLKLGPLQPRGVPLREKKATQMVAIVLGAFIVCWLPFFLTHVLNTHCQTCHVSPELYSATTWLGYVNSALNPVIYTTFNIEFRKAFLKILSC

[8] = species on record: Homo sapiens; assay: Selectivity index, ratio of Ki for human recombinant adenosine A1 receptor to Ki for human recombinant histamine H3 receptor
[9] = biological target: T1, Adenosine receptor A2a; assay: Displacement of [3H]MSX-2 from human recombinant adenosine A2A receptor expressed in CHO cells by liquid scintillation counting analysis; type: cell-based
[10] = species on record: Homo sapiens; assay: Selectivity index, ratio of Ki for human recombinant adenosine A2B receptor to Ki for human recombinant histamine H3 receptor
[11] = biological target: D(2) dopamine receptor (Homo sapiens, UniProt P14416); assay: Displacement of [3H]spiperone from human recombinant dopamine D2S receptor expressed in CHO cells by liquid scintillation counting analysis; type: cell-based
Sequence of D(2) dopamine receptor (P14416 whole entry): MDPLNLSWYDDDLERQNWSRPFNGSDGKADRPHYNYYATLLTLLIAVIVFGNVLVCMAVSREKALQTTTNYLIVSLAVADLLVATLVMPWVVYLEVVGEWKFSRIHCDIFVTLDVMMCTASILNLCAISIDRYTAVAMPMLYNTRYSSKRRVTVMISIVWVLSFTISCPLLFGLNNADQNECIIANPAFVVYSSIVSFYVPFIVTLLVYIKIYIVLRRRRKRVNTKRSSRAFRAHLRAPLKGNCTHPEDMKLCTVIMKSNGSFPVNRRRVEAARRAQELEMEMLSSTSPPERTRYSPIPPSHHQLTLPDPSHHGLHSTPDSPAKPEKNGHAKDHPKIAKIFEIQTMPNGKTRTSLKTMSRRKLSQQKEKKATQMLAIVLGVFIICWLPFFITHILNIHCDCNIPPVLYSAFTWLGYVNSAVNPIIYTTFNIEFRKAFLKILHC

[12] = species on record: Homo sapiens; assay: Selectivity index, ratio of Ki for human recombinant dopamine D2S receptor to Ki for human recombinant adenosine A2A receptor
[13] = biological target: Adenosine receptors; A1 & A3 (Homo sapiens) (UniProt P30542+P0DMS8); assay: Selectivity index, ratio of Ki for human recombinant adenosine A3 receptor to Ki for human recombinant adenosine A1 receptor; type: protein assay
[14] = species on record: Homo sapiens; assay: Selectivity index, ratio of Ki for human recombinant adenosine A2B receptor to Ki for human recombinant adenosine A2A receptor
[15] = biological target: Histamine H3 receptor (Homo sapiens, UniProt Q9Y5N1); assay: Displacement of [3H] N-alpha methylhistamine from human recombinant histamine H3 receptor expressed in HEK293 cells measured after 90 mins; type: cell-based
Sequence of Histamine H3 receptor (Q9Y5N1 whole entry): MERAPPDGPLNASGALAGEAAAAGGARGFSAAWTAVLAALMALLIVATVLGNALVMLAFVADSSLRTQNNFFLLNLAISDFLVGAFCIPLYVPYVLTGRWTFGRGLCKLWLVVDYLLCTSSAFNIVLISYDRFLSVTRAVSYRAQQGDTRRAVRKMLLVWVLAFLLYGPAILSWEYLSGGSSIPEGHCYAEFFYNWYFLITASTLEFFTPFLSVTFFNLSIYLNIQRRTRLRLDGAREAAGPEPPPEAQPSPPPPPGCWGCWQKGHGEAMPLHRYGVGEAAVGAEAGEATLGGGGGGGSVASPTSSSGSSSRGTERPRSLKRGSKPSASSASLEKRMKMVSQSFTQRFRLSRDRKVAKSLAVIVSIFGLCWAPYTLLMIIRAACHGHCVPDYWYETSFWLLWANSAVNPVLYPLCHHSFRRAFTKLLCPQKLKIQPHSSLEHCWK

[16] = biological target: MAO-A (Homo sapiens, UniProt P21397); assay: Inhibition of human recombinant MAO-A using kynuramine as substrate at 10 uM measured for 30 mins by spectrophotometric analysis; details: probe kynuramine
Sequence of MAO-A (P21397 whole entry): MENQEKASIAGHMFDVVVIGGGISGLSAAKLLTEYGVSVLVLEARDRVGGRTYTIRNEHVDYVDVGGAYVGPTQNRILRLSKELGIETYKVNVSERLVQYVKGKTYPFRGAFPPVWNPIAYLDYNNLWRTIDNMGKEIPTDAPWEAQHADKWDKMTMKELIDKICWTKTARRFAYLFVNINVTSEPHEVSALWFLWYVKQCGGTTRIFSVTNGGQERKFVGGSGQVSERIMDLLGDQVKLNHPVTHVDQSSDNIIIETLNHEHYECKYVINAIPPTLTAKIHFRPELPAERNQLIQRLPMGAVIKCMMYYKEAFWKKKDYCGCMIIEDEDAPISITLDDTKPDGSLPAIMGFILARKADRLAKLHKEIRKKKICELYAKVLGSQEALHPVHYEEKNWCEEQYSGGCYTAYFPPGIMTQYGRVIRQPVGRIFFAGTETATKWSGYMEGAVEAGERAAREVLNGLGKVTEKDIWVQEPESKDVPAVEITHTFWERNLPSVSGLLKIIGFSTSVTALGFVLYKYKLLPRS

[17] = species on record: Homo sapiens; assay: Selectivity index, ratio of Ki for human recombinant adenosine A3 receptor to Ki for human recombinant adenosine A2A receptor
[18] = species on record: Homo sapiens; assay: Selectivity index, ratio of Ki for human recombinant adenosine A2A receptor to Ki for human recombinant adenosine A1 receptor
[19] = test system: Mus musculus; assay: Induction of wake promoting activity in C57BL/6 mouse assessed as reduction in slow wave sleep at 2 mg/kg, po by EEG analysis; type: functional, organism-based
[20] = species on record: Homo sapiens; assay: Selectivity index, ratio of Ki for human recombinant dopamine D2S receptor to Ki for human recombinant adenosine A1 receptor
[21] = species on record: Homo sapiens; assay: Selectivity index, ratio of Ki for human recombinant adenosine A2B receptor to Ki for human recombinant adenosine A1 receptor
[22] = species on record: Homo sapiens; assay: Selectivity index, ratio of Ki for human recombinant dopamine D2S receptor to Ki for human recombinant adenosine A2B receptor
[23] = biological target: T2, Adenosine receptor A2b (Homo sapiens, UniProt P29275); assay: Displacement of [3H]PSB-603 from human recombinant adenosine A2B receptor expressed in CHO cells by liquid scintillation counting analysis; type: cell-based
T2 sequence (P29275 whole entry): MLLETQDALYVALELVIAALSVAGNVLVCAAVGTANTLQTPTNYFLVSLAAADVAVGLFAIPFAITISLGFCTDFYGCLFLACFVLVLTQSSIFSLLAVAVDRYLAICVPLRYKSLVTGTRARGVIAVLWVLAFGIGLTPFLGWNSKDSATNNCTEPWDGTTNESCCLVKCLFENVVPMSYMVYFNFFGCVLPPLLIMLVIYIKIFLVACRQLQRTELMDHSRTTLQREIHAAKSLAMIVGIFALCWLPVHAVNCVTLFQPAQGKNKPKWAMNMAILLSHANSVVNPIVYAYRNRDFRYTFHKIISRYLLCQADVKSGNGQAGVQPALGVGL

[24] = species on record: Homo sapiens; assay: Selectivity index, ratio of Ki for human recombinant dopamine D3 receptor to Ki for human recombinant adenosine A1 receptor
[25] = species on record: Homo sapiens; assay: Selectivity index, ratio of Ki for human recombinant adenosine A3 receptor to Ki for human recombinant histamine H3 receptor
[26] = test system: Mus musculus; assay: Induction of wakefulness in C57BL/6 mouse assessed as increase in time spent awake at 2 mg/kg, po by EEG analysis; type: functional, organism-based
[27] = species on record: Homo sapiens; assay: Selectivity index, ratio of Ki for human recombinant dopamine D3 receptor to Ki for human recombinant adenosine A3 receptor
[28] = biological target: MAO-B (Homo sapiens, UniProt P27338); assay: Inhibition of human recombinant MAO-B using kynuramine as substrate at 10 uM measured for 30 mins by spectrophotometric analysis; details: probe kynuramine
Sequence of MAO-B (P27338 whole entry): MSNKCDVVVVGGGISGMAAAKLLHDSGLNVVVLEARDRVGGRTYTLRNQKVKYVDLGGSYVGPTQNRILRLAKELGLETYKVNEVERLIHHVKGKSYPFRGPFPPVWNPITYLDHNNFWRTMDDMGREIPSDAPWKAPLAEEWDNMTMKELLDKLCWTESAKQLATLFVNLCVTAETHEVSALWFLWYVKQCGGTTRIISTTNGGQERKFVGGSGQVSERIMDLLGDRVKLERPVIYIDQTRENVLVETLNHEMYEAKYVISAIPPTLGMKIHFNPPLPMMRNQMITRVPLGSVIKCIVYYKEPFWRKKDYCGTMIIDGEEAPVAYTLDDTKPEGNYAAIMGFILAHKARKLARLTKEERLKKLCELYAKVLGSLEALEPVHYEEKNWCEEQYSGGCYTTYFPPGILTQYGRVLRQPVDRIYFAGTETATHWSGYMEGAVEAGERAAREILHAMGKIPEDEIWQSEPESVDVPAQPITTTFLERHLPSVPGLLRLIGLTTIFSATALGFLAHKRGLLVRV

[29] = species on record: Homo sapiens; assay: Selectivity index, ratio of Ki for human recombinant adenosine A2A receptor to Ki for human recombinant histamine H3 receptor
[30] = species on record: Homo sapiens; assay: Selectivity index, ratio of Ki for human recombinant dopamine D2S receptor to Ki for human recombinant adenosine A3 receptor
[31] = biological target: T3, Adenosine receptor A1 (Homo sapiens, UniProt P30542); assay: Displacement of [3H]CCPA from human recombinant adenosine A1 receptor expressed in CHO cells by liquid scintillation counting analysis; type: cell-based
T3 sequence (P30542 whole entry): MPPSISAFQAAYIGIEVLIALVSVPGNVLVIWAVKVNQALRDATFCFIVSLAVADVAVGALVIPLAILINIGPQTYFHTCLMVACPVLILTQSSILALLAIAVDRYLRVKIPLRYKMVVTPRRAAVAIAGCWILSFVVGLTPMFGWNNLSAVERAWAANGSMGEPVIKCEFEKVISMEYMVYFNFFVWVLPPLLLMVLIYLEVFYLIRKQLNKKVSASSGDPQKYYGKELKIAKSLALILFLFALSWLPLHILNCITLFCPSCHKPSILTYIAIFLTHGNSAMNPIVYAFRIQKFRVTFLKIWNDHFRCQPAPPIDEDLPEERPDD

[32] = biological target: D(1B) dopamine receptor (Homo sapiens, UniProt P21918); assay: Displacement of [3H]SCH23390 from human recombinant dopamine D5 receptor expressed in HEK293 cells by liquid scintillation counting analysis; type: cell-based
Sequence of D(1B) dopamine receptor (P21918 whole entry): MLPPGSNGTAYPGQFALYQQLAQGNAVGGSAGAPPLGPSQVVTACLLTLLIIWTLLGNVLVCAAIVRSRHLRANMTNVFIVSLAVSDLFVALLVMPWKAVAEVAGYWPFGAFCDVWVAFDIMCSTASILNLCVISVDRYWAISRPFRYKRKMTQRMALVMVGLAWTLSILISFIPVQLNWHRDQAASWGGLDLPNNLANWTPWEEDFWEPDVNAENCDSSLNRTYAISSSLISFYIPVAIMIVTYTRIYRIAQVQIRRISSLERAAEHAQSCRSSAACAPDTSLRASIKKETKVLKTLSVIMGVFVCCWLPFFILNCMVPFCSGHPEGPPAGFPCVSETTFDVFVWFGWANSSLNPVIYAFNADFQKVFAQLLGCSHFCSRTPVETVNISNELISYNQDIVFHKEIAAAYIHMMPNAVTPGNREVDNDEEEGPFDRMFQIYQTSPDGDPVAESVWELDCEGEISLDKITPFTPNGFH

[33] = species on record: Homo sapiens; assay: Selectivity index, ratio of Ki for human recombinant dopamine D2S receptor to Ki for human recombinant histamine H3 receptor
[34] = species on record: Homo sapiens; assay: Selectivity index, ratio of Ki for human recombinant dopamine D3 receptor to Ki for human recombinant dopamine D2S receptor
[35] = biological target: Histamine H1 receptor (Homo sapiens, UniProt P35367); assay: Displacement of [3H]pyrilamine from human recombinant histamine H1 receptor expressed in CHO cells by liquid scintillation counting analysis; type: cell-based
Sequence of Histamine H1 receptor (P35367 whole entry): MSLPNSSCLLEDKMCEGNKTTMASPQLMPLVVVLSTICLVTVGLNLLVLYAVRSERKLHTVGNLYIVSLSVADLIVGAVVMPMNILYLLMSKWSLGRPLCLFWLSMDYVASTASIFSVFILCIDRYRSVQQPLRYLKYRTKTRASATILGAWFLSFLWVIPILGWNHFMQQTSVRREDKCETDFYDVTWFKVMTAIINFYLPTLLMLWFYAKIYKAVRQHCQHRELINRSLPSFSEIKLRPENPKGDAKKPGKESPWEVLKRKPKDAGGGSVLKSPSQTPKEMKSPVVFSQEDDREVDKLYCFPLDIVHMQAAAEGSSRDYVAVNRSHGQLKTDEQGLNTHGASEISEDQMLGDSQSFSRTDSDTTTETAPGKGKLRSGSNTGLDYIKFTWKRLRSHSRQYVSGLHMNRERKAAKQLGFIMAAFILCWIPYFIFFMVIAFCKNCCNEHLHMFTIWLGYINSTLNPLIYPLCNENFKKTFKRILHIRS

[36] = Displacement of [3H]SCH23390 from human recombinant dopamine D1 receptor expressed in HEK293 cells by liquid scintillation counting analysis; type: cell-based
[37] = species on record: Homo sapiens; assay: Selectivity index, ratio of Ki for human recombinant dopamine D3 receptor to Ki for human recombinant adenosine A2B receptor
[38] = biological target: T4, Adenosine receptor A3 (Homo sapiens, UniProt P0DMS8); assay: Displacement of [3H]PSB-11 from human recombinant adenosine A3 receptor expressed in CHO cells by liquid scintillation counting analysis; type: cell-based
T4 sequence (P0DMS8 whole entry): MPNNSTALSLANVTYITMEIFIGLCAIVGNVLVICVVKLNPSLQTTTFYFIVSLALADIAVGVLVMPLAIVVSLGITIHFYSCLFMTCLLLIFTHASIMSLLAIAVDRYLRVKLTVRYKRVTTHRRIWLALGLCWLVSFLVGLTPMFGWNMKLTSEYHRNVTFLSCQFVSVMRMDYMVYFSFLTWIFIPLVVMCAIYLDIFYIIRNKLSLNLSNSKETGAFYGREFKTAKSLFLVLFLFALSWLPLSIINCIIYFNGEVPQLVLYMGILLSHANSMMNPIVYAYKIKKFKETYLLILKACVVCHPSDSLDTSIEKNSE

[39] = species on record: Homo sapiens; assay: Selectivity index, ratio of Ki for human recombinant dopamine D3 receptor to Ki for human recombinant histamine H3 receptor
[40] = biological target: Histamine H4 receptor (Homo sapiens, UniProt Q9H3N8); assay: Displacement of [3H]histamine from human recombinant histamine H4 receptor expressed in sf9 cells by liquid scintillation counting analysis
Sequence of Histamine H4 receptor (Q9H3N8 whole entry): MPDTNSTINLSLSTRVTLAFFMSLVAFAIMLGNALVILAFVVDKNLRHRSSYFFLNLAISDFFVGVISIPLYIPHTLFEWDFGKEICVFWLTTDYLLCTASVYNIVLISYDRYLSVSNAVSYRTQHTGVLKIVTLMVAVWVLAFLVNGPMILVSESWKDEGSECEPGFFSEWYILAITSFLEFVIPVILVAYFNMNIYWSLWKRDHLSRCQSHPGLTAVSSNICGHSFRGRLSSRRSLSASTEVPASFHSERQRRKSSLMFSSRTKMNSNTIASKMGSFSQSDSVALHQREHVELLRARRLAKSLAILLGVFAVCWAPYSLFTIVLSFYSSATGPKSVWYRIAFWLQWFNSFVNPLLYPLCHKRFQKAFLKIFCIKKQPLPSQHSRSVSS

Nc1nc(-c2ccccc2)c2c(n1)-c1cc(OCCCN3CCCCC3)ccc1C2=O
Activity [1]: Dose-Dependent Effect
Activity [2]: Non-Toxic
Activity [3]: inactive
Activity [4]: inactive
Ratio Ki [5]: 91
Ratio Ki [6]: 3
Ki [7]: 364 nM
Ratio Ki [8]: 0.22
Ki [9]: 4.01 nM
Ratio Ki [10]: 0.84
Ki [11]: 1590 nM
Ratio Ki [12]: 396
Ratio Ki [13]: 13
Ratio Ki [14]: 11
Ki [15]: 52 nM
inhibition at 0.5 h, 10 µM [16]: 16%
Ratio Ki [17]: 37
Ratio Ki [18]: 0.36
Activity [19]: Active
Ratio Ki [20]: 142
Ratio Ki [21]: 4
Ratio Ki [22]: 36
Ki [23]: 43.5 nM
Ratio Ki [24]: 33
Ratio Ki [25]: 3
Activity [26]: Active
Ratio Ki [27]: 2
inhibition at 0.5 h, 10 µM [28]: 50%
Ratio Ki [29]: 0.08
Ratio Ki [30]: 11
Ki [31]: 11.2 nM
Ki [32]: > 1000 nM
Ratio Ki [33]: 31
Ratio Ki [34]: 0.23
Ki [35]: > 1000 nM
Ki [36]: > 1000 nM
Ratio Ki [37]: 8
Ki [38]: 150 nM
Ratio Ki [39]: 7
Ki [40]: > 10000 nM
